Measured values published in patent US20090105305A1, “Therapeutic Agents - 550” (AstraZeneca AB, priority 2006, published 2009).

target: T1, human Fatty Acid Synthase (Homo sapiens, UniProt P49327); test: Human FAS enzyme assay (decrease in NADPH fluorescence); format: biochemical; settings: % inhibition at a concentration of 100 micromolar
T1 construct: made in house
Procedure, shortened: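 Readout: decrease in NADPH fluorescence (340 nm ex, 460 nm em) after 60 min at RT, background-subtracted against a read taken before substrate. Substrate mix contained 500 μM malonyl-CoA and 150 μM acetyl-CoA. It was added after 15 min enzyme (0.4 μg in-house human FAS)–compound–NADPH preincubation in Tris pH 7.5 buffer; % inhibition was fitted to IC50.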

T1 sequence (P49327 whole entry): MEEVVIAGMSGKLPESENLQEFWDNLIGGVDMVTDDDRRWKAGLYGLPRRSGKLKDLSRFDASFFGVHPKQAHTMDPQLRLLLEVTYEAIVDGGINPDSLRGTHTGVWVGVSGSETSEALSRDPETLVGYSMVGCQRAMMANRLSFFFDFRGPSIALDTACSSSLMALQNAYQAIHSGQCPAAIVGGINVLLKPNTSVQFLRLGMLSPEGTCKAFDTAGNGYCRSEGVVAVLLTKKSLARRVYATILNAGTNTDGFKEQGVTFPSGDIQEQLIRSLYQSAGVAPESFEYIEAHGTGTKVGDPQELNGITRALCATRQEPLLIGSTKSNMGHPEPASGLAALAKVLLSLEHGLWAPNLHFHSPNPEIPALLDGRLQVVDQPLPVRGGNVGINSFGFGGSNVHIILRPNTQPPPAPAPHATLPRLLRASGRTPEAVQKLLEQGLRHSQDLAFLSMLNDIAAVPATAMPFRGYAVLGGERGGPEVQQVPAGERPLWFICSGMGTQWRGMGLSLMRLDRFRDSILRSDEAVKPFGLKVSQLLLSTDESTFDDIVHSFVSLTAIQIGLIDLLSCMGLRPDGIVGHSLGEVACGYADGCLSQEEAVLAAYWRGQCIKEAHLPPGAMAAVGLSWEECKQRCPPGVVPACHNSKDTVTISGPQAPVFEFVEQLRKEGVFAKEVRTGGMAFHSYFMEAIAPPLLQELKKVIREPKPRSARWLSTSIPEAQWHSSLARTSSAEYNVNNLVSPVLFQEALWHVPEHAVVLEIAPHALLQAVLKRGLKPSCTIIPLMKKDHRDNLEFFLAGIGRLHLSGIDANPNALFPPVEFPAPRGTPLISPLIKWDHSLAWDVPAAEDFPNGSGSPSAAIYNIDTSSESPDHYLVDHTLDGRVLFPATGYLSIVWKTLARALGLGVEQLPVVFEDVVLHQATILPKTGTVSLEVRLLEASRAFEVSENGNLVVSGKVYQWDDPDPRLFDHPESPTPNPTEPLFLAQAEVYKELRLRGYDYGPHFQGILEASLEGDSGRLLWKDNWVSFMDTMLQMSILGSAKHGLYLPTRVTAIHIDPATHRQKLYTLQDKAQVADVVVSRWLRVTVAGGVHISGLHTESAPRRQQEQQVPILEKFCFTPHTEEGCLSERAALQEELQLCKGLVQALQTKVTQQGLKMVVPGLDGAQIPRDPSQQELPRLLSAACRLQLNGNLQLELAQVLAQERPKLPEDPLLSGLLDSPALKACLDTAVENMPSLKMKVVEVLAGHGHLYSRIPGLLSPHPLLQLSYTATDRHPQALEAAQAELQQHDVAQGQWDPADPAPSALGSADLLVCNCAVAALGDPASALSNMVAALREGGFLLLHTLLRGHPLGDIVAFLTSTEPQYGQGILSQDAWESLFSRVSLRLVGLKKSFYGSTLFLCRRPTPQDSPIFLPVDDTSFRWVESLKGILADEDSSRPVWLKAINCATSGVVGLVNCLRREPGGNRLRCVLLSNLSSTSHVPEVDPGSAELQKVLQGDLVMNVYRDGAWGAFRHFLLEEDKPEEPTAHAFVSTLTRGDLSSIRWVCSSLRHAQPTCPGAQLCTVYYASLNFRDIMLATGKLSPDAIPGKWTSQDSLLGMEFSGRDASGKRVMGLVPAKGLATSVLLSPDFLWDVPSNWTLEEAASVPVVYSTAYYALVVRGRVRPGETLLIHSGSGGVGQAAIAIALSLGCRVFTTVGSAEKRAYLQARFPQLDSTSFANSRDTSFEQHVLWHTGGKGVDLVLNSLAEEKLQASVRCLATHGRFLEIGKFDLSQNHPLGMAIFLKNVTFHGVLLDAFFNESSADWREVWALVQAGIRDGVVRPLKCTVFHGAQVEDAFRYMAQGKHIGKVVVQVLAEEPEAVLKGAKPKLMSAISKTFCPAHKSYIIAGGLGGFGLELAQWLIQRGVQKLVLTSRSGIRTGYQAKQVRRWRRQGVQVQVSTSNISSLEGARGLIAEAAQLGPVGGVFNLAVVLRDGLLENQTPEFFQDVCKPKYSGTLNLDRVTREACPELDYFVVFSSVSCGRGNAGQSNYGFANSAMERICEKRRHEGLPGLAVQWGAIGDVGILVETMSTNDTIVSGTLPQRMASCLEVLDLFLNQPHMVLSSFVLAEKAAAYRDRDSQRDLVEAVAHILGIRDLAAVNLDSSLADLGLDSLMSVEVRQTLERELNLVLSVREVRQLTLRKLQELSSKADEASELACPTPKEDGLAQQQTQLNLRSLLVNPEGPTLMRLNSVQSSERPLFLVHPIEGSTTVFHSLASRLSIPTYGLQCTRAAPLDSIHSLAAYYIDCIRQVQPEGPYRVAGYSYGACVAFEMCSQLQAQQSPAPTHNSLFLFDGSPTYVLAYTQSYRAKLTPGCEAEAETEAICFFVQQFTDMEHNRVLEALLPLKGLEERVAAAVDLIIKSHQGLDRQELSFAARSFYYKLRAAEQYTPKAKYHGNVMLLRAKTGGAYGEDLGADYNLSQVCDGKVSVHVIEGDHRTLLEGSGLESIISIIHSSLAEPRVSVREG

Row | SMILES | inhibition at 100 µM [%] | Inhib % [%]
1 | CCNC(=O)NCc1ccc(C2CCN(C(=O)c3ccc(C)c(NS(C)(=O)=O)c3)CC2)cc1 [Example 234, 1-ethyl-3-[[4-[1-(3-methanesulfonamido-4-methylbenzoyl)piperidin-4-yl]phenyl]methyl]urea] | 78.3 | 
2 | CCCC(=O)NCc1ccc(C2CCN(C(=O)c3ccc(C)c(NS(C)(=O)=O)c3)CC2)cc1 [Example 235, N-[[4-[1-(3-methanesulfonamido-4-methylbenzoyl)piperidin-4-yl]phenyl]methyl]butanamide] | 72.8 | 
3 | Cc1ccc(C(=O)N2CCC(c3ccc(CNC(=O)CC(C)C)cc3)CC2)cc1NS(C)(=O)=O [Example 236, N-[[4-[1-(3-methanesulfonamido-4-methylbenzoyl)piperidin-4-yl]phenyl]methyl]-3-methylbutanamide] | 59.8 | 
4 | CCCS(=O)(=O)NCc1ccc(C2CCN(C(=O)c3ccc(C)c(NS(C)(=O)=O)c3)CC2)cc1 [Example 237, N-[[4-[1-(3-methanesulfonamido-4-methylbenzoyl)piperidin-4-yl]phenyl]methyl]propane-1-sulfonamide] | 85.2 | 
5 | Cc1ccc(C(=O)N2CCC(c3ccc(CNS(=O)(=O)CC(C)C)cc3)CC2)cc1NS(C)(=O)=O [Example 238, N-[[4-[1-(3-methanesulfonamido-4-methylbenzoyl)piperidin-4-yl]phenyl]methyl]-2-methylpropane-1-sulfonamide] | 81.3 | 
6 | COC(=O)NCc1ccc(C2CCN(C(=O)c3ccc(C)c(NS(C)(=O)=O)c3)CC2)cc1 [Example 239, Methyl N-[[4-[1-(3-methanesulfonamido-4-methylbenzoyl)piperidin-4-yl]phenyl]methyl]carbamate] | 89.1 | 
7 | CNC(=O)Cc1ccc(C2CCN(C(=O)c3ccc(C)c(NS(C)(=O)=O)c3)CC2)cc1 [Example 240, 2-[4-[1-(3-methanesulfonamido-4-methylbenzoyl)piperidin-4-yl]phenyl]-N-methylacetamide] | 63.9 | 

The next lines start with the values.

Row | inhibition at 100 µM [%] | Inhib % [%] | SMILES
8 | 81.5 |  | Cc1ccc(C(=O)N2CCC(c3ccc(CNC(=O)CO)cc3)CC2)cc1NS(C)(=O)=O [Example 241, 2-hydroxy-N-[[4-[1-(3-methanesulfonamido-4-methylbenzoyl)piperidin-4-yl]phenyl]methyl]acetamide]
9 | 95.7 |  | Cc1ccc(C(=O)N2CCC(c3ccc(CNS(=O)(=O)N(C)C)cc3)CC2)cc1NS(C)(=O)=O [Example 242, N-[5-[4-[4-[(dimethylsulfamoylamino)methyl]phenyl]piperidine-1-carbonyl]-2-methylphenyl]methanesulfonamide]
10 | 69.9 |  | Cc1ccc(C(=O)N2CCC(c3ccc(CN4CCOCC4)cc3)CC2)cc1NS(C)(=O)=O [Example 243, N-[2-methyl-5-[4-[4-(morpholin-4-ylmethyl)phenyl]piperidine-1-carbonyl]phenyl]methanesulfonamide]
11 | 92.3 |  | Cc1ccc(C(=O)N2CCC(c3ccc(CCC(=O)O)cc3)CC2)cc1NS(=O)(=O)C1CCCCC1 [Example 244, 3-[4-[1-[3-(cyclohexylsulfonylamino)-4-methylbenzoyl]piperidin-4-yl]phenyl]propanoic acid]
12 | 104 |  | COC(=O)CS(=O)(=O)NCc1ccc(C2CCN(C(=O)c3ccc(C)c(NS(C)(=O)=O)c3)CC2)cc1 [Example 245, Methyl 2-[[4-[1-(3-methanesulfonamido-4-methylbenzoyl)piperidin-4-yl]phenyl]methylsulfamoyl]acetate]
13 |  | 92.8 | Cc1ccc(C(=O)N2CCC(c3ccc(CCCC(=O)O)cc3)CC2)cc1NS(=O)(=O)C1CCCCC1 [Example 246, 4-[4-[[13-(cyclohexylsulfonylamino)-4-methylbenzoyl]piperidin-4-yl]phenyl]butanoic acid]

same assay, conditions: compounds excluded from the claims by proviso

Row | SMILES | IC50s in the range of about 0.001 μM to about 30 μM
14 | COC(=O)c1ccc(C2CCN(C(=O)c3ccc(C)c(NS(C)(=O)=O)c3)CC2)cc1 [Methyl 4-[1-(3-methanesulfonamido-4-methylbenzoyl)piperidin-4-yl]benzoate] | do not have IC50s in the range of about 0.001 μM to about 30 μM
15 | CS(=O)(=O)Nc1cc(C(=O)N2CCC(c3ccc(C#N)cc3)CC2)ccc1Cl [N-[2-chloro-5-[4-(4-cyanophenyl)piperidine-1-carbonyl]phenyl]methanesulfonamide] | do not have IC50s in the range of about 0.001 μM to about 30 μM
16 | Cc1ccc(C(=O)N2CCC(c3ccccc3)CC2)cc1NS(C)(=O)=O [N-[2-methyl-5-(4-phenylpiperidine-1-carbonyl)phenyl]methanesulfonamide] | do not have IC50s in the range of about 0.001 μM to about 30 μM
17 | Cc1ccc(C(=O)N2CCC(c3cccc(-c4ccccc4)c3)CC2)cc1NS(C)(=O)=O [N-[2-methyl-5-[4-(3-phenylphenyl)piperidine-1-carbonyl]phenyl]methanesulfonamide] | do not have IC50s in the range of about 0.001 μM to about 30 μM
18 | Cc1ccc(C(=O)N2CCC(c3ccc(-c4ncccn4)cc3)CC2)cc1NS(C)(=O)=O [N-[2-methyl-5-[4-(4-pyrimidin-2-ylphenyl)piperidine-1-carbonyl]phenyl]methanesulfonamide] | do not have IC50s in the range of about 0.001 μM to about 30 μM
19 | Cc1ccc(C(=O)N2CCC(c3ccc(S(=O)(=O)N4CCCC4)cc3)CC2)cc1NS(C)(=O)=O [N-[2-methyl-5-[4-(4-pyrrolidin-1-ylsulfonylphenyl)piperidine-1-carbonyl]phenyl]methanesulfonamide] | do not have IC50s in the range of about 0.001 μM to about 30 μM
20 | Cc1ccc(C(=O)N2CCC(c3cccc(-c4cncs4)c3)CC2)cc1NS(C)(=O)=O [N-[2-methyl-5-[4-[3-(1,3-thiazol-5-yl)phenyl]piperidine-1-carbonyl]phenyl]methanesulfonamide] | do not have IC50s in the range of about 0.001 μM to about 30 μM
21 | Cc1ccc(C(=O)N2CCC(c3ccc(N4CCCC4=O)cc3)CC2)cc1NS(C)(=O)=O [N-[2-methyl-5-[4-[4-(2-oxopyrrolidin-1-yl)phenyl]piperidine-1-carbonyl]phenyl]methanesulfonamide] | do not have IC50s in the range of about 0.001 μM to about 30 μM
22 | Cc1ccc(C(=O)N2CCC(c3ccc(C(=O)N4CCCN(C)CC4)cc3)CC2)cc1NS(C)(=O)=O [N-[2-methyl-5-[4-[4-(4-methyl1,4-diazepane-1-carbonyl)phenyl]piperidine-1-carbonyl]phenyl]methanesulfonamide] | do not have IC50s in the range of about 0.001 μM to about 30 μM
23 | Cc1ccc(C(=O)N2CCC(c3ccc(S(=O)(=O)N4CCN(C)CC4)cc3)CC2)cc1NS(C)(=O)=O [N-[2-methyl-5-[4-[4-(4-methylpiperazin-1-yl)sulfonylphenyl]piperidine-1-carbonyl]phenyl]methanesulfonamide] | do not have IC50s in the range of about 0.001 μM to about 30 μM
24 | CS(=O)(=O)Nc1ccc(F)c(C(=O)N2CCC(c3ccc(C#N)cc3)CC2)c1 [N-[3-[4-(4-cyanophenyl)piperidine-1-carbonyl]-4-fluorophenyl]methanesulfonamide] | do not have IC50s in the range of about 0.001 μM to about 30 μM
25 | Cc1ccc(C(=O)N2CCC(O)(c3ccccc3)CC2)cc1NS(C)(=O)=O [N-[5-(4-hydroxy-4-phenylpiperidine-1-carbonyl)-2-methylphenyl]methanesulfonamide] | do not have IC50s in the range of about 0.001 μM to about 30 μM
26 | Cc1ccc(C(=O)N2CCC(c3ccccc3C#N)CC2)cc1NS(C)(=O)=O [N-[5-[4-(2-cyanophenyl)piperidine-1-carbonyl]-2-methylphenyl]methanesulfonamide] | do not have IC50s in the range of about 0.001 μM to about 30 μM

same assay, conditions: unit inferred

Row | IC50 [nM] | SMILES
27 | 1780 | COCCOCC#Cc1ccc(C2CCN(C(=O)c3ccc(C)c(NS(C)(=O)=O)c3)CC2)cc1 [Example 247, N-[5-[4-[4-[3-(2-methoxyethoxy)prop-1-ynyl]phenyl]piperidine-1-carbonyl]-2-methylphenyl]methanesulfonamide]
28 | 405 | CNC(=O)CCc1ccc(C2CCN(C(=O)c3ccc(C)c(NS(C)(=O)=O)c3)CC2)cc1 [Example 248, 3-[4-[1-(3-methanesulfonamido-4-methylbenzoyl)piperidin-4-yl]phenyl]-N-methylpropanamide]
29 | 515 | Cc1ccc(C(=O)N2CCC(c3ccc(CCC(=O)N(C)C)cc3)CC2)cc1NS(C)(=O)=O [Example 249, 3-[4-[1-(3-methanesulfonamido-4-methylbenzoyl)piperidin-4-yl]phenyl]-N,N-dimethylpropanamide]
30 | 1440 | Cc1ccc(C(=O)N2CCC(c3ccc(C#CCCCO)cc3)CC2)cc1NS(C)(=O)=O [Example 250, N-[5-[4-[4-(5-hydroxypent-1-ynyl)phenyl]piperidine-1-carbonyl]-2-methylphenyl]methanesulfonamide]
31 | 663 | Cc1ccc(C(=O)N2CCC(c3ccc(C#CCCO)cc3)CC2)cc1NS(C)(=O)=O [Example 251, N-[5-[4-[4-(4-hydroxybut-1-ynyl)phenyl]piperidine-1-carbonyl]-2-methylphenyl]methanesulfonamide]
32 | 3330 | Cc1ccc(C(=O)N2CCC(c3ccc(C#CC(C)(C)O)cc3)CC2)cc1NS(C)(=O)=O [Example 252, N-[5-[4-[4-(3-hydroxy-3-methylbut-1-ynyl)phenyl]piperidine-1-carbonyl]-2-methylphenyl]methanesulfonamide]
33 | 12700 | Cc1ccc(C(=O)N2CCC(c3ccc(CNS(=O)(=O)CC(=O)O)cc3)CC2)cc1NS(C)(=O)=O [Example 253, 2-[[4-[1-(3-methanesulfonamido-4-methylbenzoyl)piperidin-4-yl]phenyl]methylsulfamoyl]acetic acid]
